In PMC5219024, “New acetylenic derivatives of betulin and betulone, synthesis and cytotoxic activity” (Medicinal Chemistry Research, 2016):
In brackets after ≈: the same amount, converted by molar mass. Read-outs that look alike come from different tables or passages of the source.

How the values were obtained:
[1] = test system: T47D (human breast cancer); assay: Antiproliferative assay in vitro (SRB), T47D; type: cell-based; details: read-out: Cytotoxic activity IC50, T47D
Procedure: (§1) The tested cell lines were obtained from the American Type Culture Collection (Rockville, Maryland, USA) and maintained at the Cell Culture Collection of the Institute of Immunology and Experimental Therapy (Wrocław, Poland). The cells were seeded in 96-well plates (Sarstedt, USA) at a density of 10^4 cells per well in 100 µL of culture medium overnight. […] The normal mouse fibroblasts BALB3T3 was cultured in Dulbecco’s modified Eagle’s medium (Sigma-Aldrich, Chemie GmbH, Steinheim, Germany) supplemented with 2 mM glutamine (Sigma-Aldrich, Chemie GmbH, Steinheim, Germany) and 10 % fetal calf serum FBS (Sigma-Aldrich, Chemie GmbH, Steinheim, Germany). The all culture media were supplemented with streptomycin (100 µg/mL) and penicillin (100 U/mL) (both antibiotics from Polfa, Tarchomin, Poland). The cell cultures were maintained at 37 °C in humid atmosphere saturated with 5 % CO2. This technique as first was described by Skehan et al. in [1990]. The SRB assay was performed after 96 h exposure of the cultured cells to varying concentrations (ranging from 1 to 100 µg/mL) of the tested substances. The reported derivatives as well as betulin 1 were dissolved in 10 % dimethyl sulfoxide (DMSO) to concentration of 1 mg/mL, and next diluted in culture medium to reach the required concentrations. […] The cells fastened to the plastic were fixed mildly layering cold 50 % TCA (trichloroacetic acid, Aldrich-Chemie, Germany) on the top of the culture medium in each well. The plates were incubated at 4 °C for 1 h and then washed five times with tap water. The cells fixed with TCA were stained with 0.4 % sulforhodamine B (SRB, Sigma, Germany) dissolved in 1 % acetic acid (POCH, Gliwice, Poland) for 30 min. The unbound dye was removed by rinsing four times with 1 % acetic acid. The protein-bound dye was extracted with 10 mM unbuffered tris base (POCH, Gliwice, Poland) and then determined the optical density at 540 nm in a computer-interfaced, 96-well microtiter plate reader Multiscan RC photometer (Labsystems, Helsinki, Finland). The compounds in given concentration were examined in triplicates in each experiment which was repeated 3–5 times. The results of cytotoxic activity in vitro were expressed as an IC50 in µg/mL.

[2] = test system: CCRF/CEM (human leukemia); assay: Antiproliferative assay in vitro (MTT), CCRF/CEM; type: cell-based; details: read-out: Cytotoxic activity IC50, CCRF/CEM
Procedure: (§2) The tested cell lines were obtained from the American Type Culture Collection (Rockville, Maryland, USA) and maintained at the Cell Culture Collection of the Institute of Immunology and Experimental Therapy (Wrocław, Poland). The cells were seeded in 96-well plates (Sarstedt, USA) at a density of 10^4 cells per well in 100 µL of culture medium overnight. […] The normal mouse fibroblasts BALB3T3 was cultured in Dulbecco’s modified Eagle’s medium (Sigma-Aldrich, Chemie GmbH, Steinheim, Germany) supplemented with 2 mM glutamine (Sigma-Aldrich, Chemie GmbH, Steinheim, Germany) and 10 % fetal calf serum FBS (Sigma-Aldrich, Chemie GmbH, Steinheim, Germany). The all culture media were supplemented with streptomycin (100 µg/mL) and penicillin (100 U/mL) (both antibiotics from Polfa, Tarchomin, Poland). The cell cultures were maintained at 37 °C in humid atmosphere saturated with 5 % CO2. The MTT assay was used for the cytotoxicity screening against leukemia cells growing in suspension culture. This assay was performed after 96 h of the leukemia cells to varying concentrations (ranging from 1 to 100 µg/mL) of the tested substances. The derivatives of betulin were dissolved in 10 % DMSO to concentration of 1 mg/mL, and next diluted in culture medium to reach the required concentrations. […] During the last 3–4 h of incubation 20 µl of MTT solution were added to each well (MTT: 3-(4,5-dimethylthiazol-2-yl)-2,5-diphenyl tetrazolium bromide; stock solution: 5 mg/mL). The pale yellow MTT is reduced to a navy blue formazan in the mitochondria of living cells. At the end of incubation time, 80 µL of the lysing mixture was added to each well (lysing mixture: 225 mL dimethylformamide, 67.5 g sodium dodecyl sulfate and 275 mL of distilled water). After 24 h are formed the crystals of formazan, which are insoluble in aqueous solutions. The formazan crystals had been dissolved. The optical densities were read on a Multiskan RC photometer at 570 nm wavelength. The compounds in given concentration were examined in triplicates in each experiment which was repeated 3–5 times. The results of cytotoxic activity in vitro were expressed as an IC50 in µg/mL.

SW707 (human colorectal) = assay: Antiproliferative assay in vitro (SRB), SW707; type: cell-based; details: for IC50: read-out: Cytotoxic activity IC50, SW707
Procedure: as §1

[3] = Antiproliferative assay in vitro (SRB), BALB3T3; type: cell-based, mouse; details: mouse; murine BALB3T3 normal fibroblasts; 96 h exposure; 1 to 100 µg/mL; Neg = negative in the concentration used; read-out: Cytotoxic activity IC50, BALB3T3
Procedure: as §1

[4] = test system: HL-60 (human promyelocytic leukemia); assay: Antiproliferative assay in vitro (MTT), HL-60; type: cell-based; details: Homo sapiens, read-out: Cytotoxic activity IC50, HL-60
Procedure: as §2

P388 (mouse leukemia) = assay: Antiproliferative assay in vitro (MTT), P388; type: cell-based; details: Mus musculus; murine P388; 96 h exposure; 1 to 100 µg/mL; Neg = negative in the concentration used; read-out: Cytotoxic activity IC50, P388
Procedure: as §2

[5] = test system: BALB3T3 normal mouse fibroblasts; assay: Antiproliferative assay in vitro (SRB), BALB3T3; type: cell-based; details: murine BALB3T3 normal fibroblasts; 96 h exposure; 1 to 100 µg/mL; Neg = negative in the concentration used
Procedure: as §1

[6] = human T47D, 96 h exposure, 1 to 100 µg/mL, Neg = negative in the concentration used
[7] = human CCRF/CEM, 96 h exposure, 1 to 100 µg/mL, Neg = negative in the concentration used
[8] = human SW707, 96 h exposure, 1 to 100 µg/mL, Neg = negative in the concentration used
[9] = HL-60 cancer cell line, 96 h exposure

SMILES	IC50 at 96 h [3] [µg/mL]	IC50 [1, 6] [µg/mL]	IC50 [2, 7] [µg/mL]	IC50 (P388 (mouse leukemia)) [µg/mL]	IC50 [4, 9] [µg/mL]	melting point [°C]	also measured
C=C(C)[C@@H]1CC[C@]2(CO)CC[C@]3(C)[C@H](CC[C@@H]4[C@@]5(C)CC[C@H](O)C(C)(C)[C@@H]5CC[C@]43C)[C@@H]12 [Betulin 1, lup-20(29)-ene-3β,28-diol, reference compound]	47.3 ± 7.9 (≈ 107 µM)						IC50 ([1]; Homo sapiens, T47D, 96 h): 32.4 ± 10.7 µg/mL (≈ 73.2 µM); IC50 ([2]; Homo sapiens, CCRF-CEM, 96 h): 10.9 ± 5.5 µg/mL (≈ 24.6 µM); IC50 (SW707 (human colorectal); Homo sapiens, SW707, 96 h): 22.9 ± 15.4 µg/mL (≈ 51.7 µM); IC50 ([4]; HL-60, 96 h): 7.2 ± 0.5 µg/mL (≈ 16.3 µM)
C=CC(=O)OC[C@]12CC[C@@H](C(=C)C)C1C1CCC3[C@@]4(C)CC[C@H](O)C(C)(C)C4CC[C@@]3(C)[C@]1(C)CC2 (stereo partly drawn) [Compound 4, 28-O-(2-Propenoyl)betulin]	24.3 ± 6.9 (≈ 48.9 µM)	7.1 ± 2.7 (≈ 14.3 µM)	19.6 ± 9.5 (≈ 39.5 µM)	9.9 ± 5.9 (≈ 19.9 µM)	18.8 ± 4.8 (≈ 37.8 µM)	117 to 121	IC50 (SW707 (human colorectal); [8]): 29.6 ± 4.2 µg/mL (≈ 59.6 µM)
C=C(C)[C@@H]1CC[C@]2(COC(=O)C#CC3CC3)CC[C@]3(C)C(CCC4[C@@]5(C)CC[C@H](O)C(C)(C)C5CC[C@]43C)C12 (stereo partly drawn) [Compound 6, 28-O-(3-Cyclopropyl-2-propynoyl)betulin]		33.6 ± 6.3 (≈ 62.8 µM)	16.5 ± 8.5 (≈ 30.9 µM)	8.4 ± 9.2 (≈ 15.7 µM)	44.8 ± 10.9 (≈ 83.8 µM)	108 to 113	Cytotoxic activity IC50, SW707 (SW707 (human colorectal); [8]): Neg; Cytotoxic activity IC50, BALB3T3 [5]: Neg
C=C(C)[C@@H]1CC[C@]2(COC(=O)C=CC)CC[C@]3(C)C(CCC4[C@@]5(C)CC[C@H](O)C(C)(C)C5CC[C@]43C)C12 (stereo partly drawn) [Compound 8, 28-O-(2-Butenoyl)betulin]	25.6 ± 1.8 (≈ 50.1 µM)	29.9 ± 9.3 (≈ 58.5 µM)	28 ± 21.6 (≈ 54.8 µM)	5.1 ± 4.9 (≈ 9.98 µM)		182 to 184	IC50 (SW707 (human colorectal); [8]): 32 ± 4.2 µg/mL (≈ 62.6 µM)
C=C(C)[C@@H]1CC[C@]2(COC(=O)OCCC)CC[C@]3(C)C(CCC4[C@@]5(C)CC[C@H](O)C(C)(C)C5CC[C@]43C)C12 (stereo partly drawn) [Compound 10, 28-O-Propoxycarbonylbetulin]					26.8 ± 2.5 (≈ 50.7 µM)		
C=CCOC(=O)OC[C@]12CC[C@@H](C(=C)C)C1C1CCC3[C@@]4(C)CC[C@H](O)C(C)(C)C4CC[C@@]3(C)[C@]1(C)CC2 (stereo partly drawn) [Compound 11, 28-O-Allyloxycarbonylbetulin]					14.9 ± 3.9 (≈ 28.3 µM)		
C#CCOC(=O)OC[C@]12CC[C@@H](C(=C)C)C1C1CCC3[C@@]4(C)CC[C@H](O)C(C)(C)C4CC[C@@]3(C)[C@]1(C)CC2 (stereo partly drawn) [Compound 12]					3.7 ± 0.5 (≈ 7.05 µM)		
C=C(C)[C@@H]1CC[C@]2(COC(=O)CC)CC[C@]3(C)C(CCC4[C@@]5(C)CCC(=O)C(C)(C)C5CC[C@]43C)C12 (stereo partly drawn) [Compound 15, 28-O-Propanoylbetulone]					33.7 ± 5.5 (≈ 67.8 µM)		
C=CC(=O)OC[C@]12CC[C@@H](C(=C)C)C1C1CCC3[C@@]4(C)CCC(=O)C(C)(C)C4CC[C@@]3(C)[C@]1(C)CC2 (stereo partly drawn) [Compound 16, 28-O-(2-Propenoyl)betulone]					5 ± 1.3 (≈ 10.1 µM)		
